Values of other authors in patent US7825159B2, “Mixtures of aromatic esters for marking or tagging organic products, marker compositions comprising the same and manufacturing methods thereof” (United Color Manufacturing, Inc., priority 2006, dated 2010).

Tests used:
[1] = with less than 28 wt. % n-octylpyrolidinone co-solvent
[2] = with less than 28 wt. % n-octylpyrolidinone co-solvent, even with vigorous stirring

CCCC(=O)Oc1ccc(C2(c3ccc(OC(=O)CCC)c(C)c3)OC(=O)c3ccccc32)cc1C [Cresolphthalein dibutyrate]
Precipitation on standing overnight in the freezer [1]: precipitates | Dispersion into diesel fuel [2]: will not disperse
